Test results taken from ChEMBL document CHEMBL2429790, “Identification of 2-amino-5-aryl-pyrazines as inhibitors of human lactate dehydrogenase” (Bioorg Med Chem Lett, 2013).
≈ marks a conversion by molar mass, not a printed value.

Columns and labels:
[1] = biological target: T1, L-lactate dehydrogenase A chain (Homo sapiens, UniProt P00338); test: Binding affinity to human recombinant carboxy-terminal his-tagged LDHA (1 to 331) expressed in Escherichia coli by surface plasmon resonance analysis in presence of NADH
[2] = biological target: T1, L-lactate dehydrogenase A chain; test: Inhibition of human recombinant carboxy-terminal his-tagged LDHA (1 to 331) expressed in Escherichia coli using pyruvate as substrate assessed as disappearance of NADH after 10 mins by fluorescence assay
[3] = biological target: L-lactate dehydrogenase B chain (Homo sapiens, UniProt P07195)
Chain of L-lactate dehydrogenase B chain (P07195 whole entry): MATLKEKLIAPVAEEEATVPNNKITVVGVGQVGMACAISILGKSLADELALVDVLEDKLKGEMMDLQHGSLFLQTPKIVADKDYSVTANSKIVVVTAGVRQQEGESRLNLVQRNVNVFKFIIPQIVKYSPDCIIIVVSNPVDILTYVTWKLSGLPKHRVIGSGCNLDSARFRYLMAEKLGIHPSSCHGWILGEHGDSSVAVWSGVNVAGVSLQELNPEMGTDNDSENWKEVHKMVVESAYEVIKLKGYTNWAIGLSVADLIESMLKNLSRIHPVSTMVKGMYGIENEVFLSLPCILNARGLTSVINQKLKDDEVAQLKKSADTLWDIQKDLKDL

[4] = Oral bioavailability in Sprague-Dawley rat at 1.5 mg/kg; assay type: ADME, organism-based; settings: in vivo
Cytochrome P450 2D6 = Cytochrome P450 2D6 (Homo sapiens, UniProt P10635); test: Inhibition of CYP2D6 (unknown origin) up to 10 uM; assay type: ADME
Chain of Cytochrome P450 2D6 (P10635 whole entry): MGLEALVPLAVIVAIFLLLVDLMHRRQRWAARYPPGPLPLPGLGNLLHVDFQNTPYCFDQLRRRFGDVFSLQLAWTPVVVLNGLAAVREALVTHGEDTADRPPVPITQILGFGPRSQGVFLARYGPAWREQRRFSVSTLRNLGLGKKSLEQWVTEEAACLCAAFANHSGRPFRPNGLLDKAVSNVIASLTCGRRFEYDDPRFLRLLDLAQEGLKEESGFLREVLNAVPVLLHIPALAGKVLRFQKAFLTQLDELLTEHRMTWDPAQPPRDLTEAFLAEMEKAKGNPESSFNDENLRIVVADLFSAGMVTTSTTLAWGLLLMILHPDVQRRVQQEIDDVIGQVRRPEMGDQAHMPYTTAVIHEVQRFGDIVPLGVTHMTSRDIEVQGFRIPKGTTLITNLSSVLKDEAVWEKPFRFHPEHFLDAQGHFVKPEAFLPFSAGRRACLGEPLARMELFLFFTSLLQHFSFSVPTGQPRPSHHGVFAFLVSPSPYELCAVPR

[5] = Plasma protein binding in human at 5 uM after 4 hrs by equilibrium dialysis method; assay type: ADME, cell-free; settings: read-out: PPB
Cytochrome P450 1A2 = biological target: T2, Cytochrome P450 1A2 (Homo sapiens, UniProt P05177); test: Inhibition of CYP1A2 (unknown origin) up to 10 uM; assay type: ADME
T2 sequence (P05177 whole entry): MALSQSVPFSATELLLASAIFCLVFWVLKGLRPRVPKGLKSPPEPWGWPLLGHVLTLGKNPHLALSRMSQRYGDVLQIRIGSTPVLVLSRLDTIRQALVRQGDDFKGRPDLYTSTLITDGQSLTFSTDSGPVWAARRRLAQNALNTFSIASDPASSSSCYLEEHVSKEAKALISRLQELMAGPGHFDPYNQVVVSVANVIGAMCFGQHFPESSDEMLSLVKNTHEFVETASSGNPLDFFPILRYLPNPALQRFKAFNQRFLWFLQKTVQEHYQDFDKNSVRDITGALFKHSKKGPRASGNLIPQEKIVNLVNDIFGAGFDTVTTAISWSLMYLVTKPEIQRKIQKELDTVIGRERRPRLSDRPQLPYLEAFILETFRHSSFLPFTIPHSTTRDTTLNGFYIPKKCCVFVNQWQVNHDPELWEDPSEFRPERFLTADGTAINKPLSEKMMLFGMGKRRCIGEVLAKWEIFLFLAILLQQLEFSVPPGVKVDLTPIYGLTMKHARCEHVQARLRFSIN

Cytochrome P450 2C9 = Cytochrome P450 2C9 (Homo sapiens, UniProt P11712); test: Inhibition of CYP2C9 (unknown origin) up to 10 uM; assay type: ADME
Chain of Cytochrome P450 2C9 (P11712 whole entry): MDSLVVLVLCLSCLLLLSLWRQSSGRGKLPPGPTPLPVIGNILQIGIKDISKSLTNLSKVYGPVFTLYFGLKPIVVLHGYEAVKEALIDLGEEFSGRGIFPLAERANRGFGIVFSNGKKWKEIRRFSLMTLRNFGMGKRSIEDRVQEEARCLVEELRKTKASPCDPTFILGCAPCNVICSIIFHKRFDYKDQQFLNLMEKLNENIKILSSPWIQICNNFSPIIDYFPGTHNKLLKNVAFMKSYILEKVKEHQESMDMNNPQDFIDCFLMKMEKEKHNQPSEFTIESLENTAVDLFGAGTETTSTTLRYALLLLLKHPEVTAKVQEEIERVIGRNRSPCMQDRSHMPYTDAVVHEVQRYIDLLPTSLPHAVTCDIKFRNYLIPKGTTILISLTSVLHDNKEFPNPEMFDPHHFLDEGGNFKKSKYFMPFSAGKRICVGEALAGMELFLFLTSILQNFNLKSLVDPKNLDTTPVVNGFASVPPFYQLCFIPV

[6] = AUC (infinity) in Sprague-Dawley rat at 1.5 mg/kg, po; assay type: ADME, organism-based; parameters: time infinity, dose 1.5 mg/kg, route oral; settings: plasma
[7] = Aqueous kinetic solubility of the compound at pH 7.4; assay type: physicochemical; settings: read-out: Kinetic_solubility
[8] = Cytotoxicity against human MCF7-neo/Her2 cells assessed as cell viability at 50 uM by Sytox Green/Hoescht 33342 staining assay; assay type: cell-based
Cytochrome P450 3A4 = Cytochrome P450 3A4 (Homo sapiens, UniProt P08684); test: Inhibition of CYP3A4 (unknown origin) up to 10 uM; assay type: ADME
Chain of Cytochrome P450 3A4 (P08684 whole entry): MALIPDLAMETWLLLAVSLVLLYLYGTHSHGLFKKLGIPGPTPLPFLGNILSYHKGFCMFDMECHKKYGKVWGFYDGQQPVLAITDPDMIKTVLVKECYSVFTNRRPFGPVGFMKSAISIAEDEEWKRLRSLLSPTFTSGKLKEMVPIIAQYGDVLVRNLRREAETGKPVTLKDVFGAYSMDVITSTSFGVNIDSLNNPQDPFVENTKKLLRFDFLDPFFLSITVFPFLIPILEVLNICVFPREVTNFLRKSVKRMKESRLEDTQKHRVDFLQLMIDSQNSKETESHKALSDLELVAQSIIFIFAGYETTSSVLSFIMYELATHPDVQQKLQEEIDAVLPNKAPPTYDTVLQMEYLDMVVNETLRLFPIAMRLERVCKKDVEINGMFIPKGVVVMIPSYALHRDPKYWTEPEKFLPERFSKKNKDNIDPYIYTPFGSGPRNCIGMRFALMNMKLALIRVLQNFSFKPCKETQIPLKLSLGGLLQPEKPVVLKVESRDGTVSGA

[9] = Plasma protein binding in rat at 5 uM after 4 hrs by equilibrium dialysis method; assay type: ADME, cell-free; settings: read-out: PPB (converted)
[10] = Permeability across apical to basolateral side in MDCK cells; assay type: ADME, cell-based, Canis lupus familiaris; settings: dog, read-out: permeability
[11] = Cmax in Sprague-Dawley rat at 0.5 mg/kg, iv; assay type: ADME, organism-based; parameters: dose 0.5 mg/kg, route intravenous; settings: in vivo
[12] = Volume of distribution in Sprague-Dawley rat at 1.5 mg/kg, po and 0.5 mg/kg, iv; assay type: ADME, organism-based; settings: in vivo
[13] = Permeability across basolateral to apical side in MDCK cells; assay type: ADME, cell-based, Canis lupus familiaris; settings: dog, read-out: permeability
Cytochrome P450 2C19 = Cytochrome P450 2C19 (Homo sapiens, UniProt P33261); test: Inhibition of CYP2C19 (unknown origin) up to 10 uM; assay type: ADME
Chain of Cytochrome P450 2C19 (P33261 whole entry): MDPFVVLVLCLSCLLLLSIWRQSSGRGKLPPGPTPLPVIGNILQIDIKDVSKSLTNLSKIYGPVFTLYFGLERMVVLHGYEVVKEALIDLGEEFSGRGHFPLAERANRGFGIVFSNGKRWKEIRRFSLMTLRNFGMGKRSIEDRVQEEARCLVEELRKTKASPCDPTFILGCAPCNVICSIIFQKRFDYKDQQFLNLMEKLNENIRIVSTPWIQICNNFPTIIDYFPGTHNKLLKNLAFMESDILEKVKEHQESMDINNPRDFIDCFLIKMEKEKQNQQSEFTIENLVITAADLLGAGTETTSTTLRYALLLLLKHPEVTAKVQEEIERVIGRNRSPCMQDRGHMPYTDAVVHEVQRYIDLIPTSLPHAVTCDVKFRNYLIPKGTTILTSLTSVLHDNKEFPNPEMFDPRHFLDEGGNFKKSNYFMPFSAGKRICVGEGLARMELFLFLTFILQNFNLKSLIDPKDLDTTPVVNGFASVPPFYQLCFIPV

[14] = Plasma clearance in Sprague-Dawley rat at 1.5 mg/kg, po and 0.5 mg/kg, iv; assay type: ADME, organism-based
[15] = Half life in Sprague-Dawley rat at 1.5 mg/kg, po and 0.5 mg/kg, iv; assay type: ADME, organism-based; settings: in vivo
[16] = biological target: T1, L-lactate dehydrogenase A chain; test: Binding affinity to human recombinant carboxy-terminal his-tagged LDHA (1 to 331) expressed in Escherichia coli by surface plasmon resonance analysis in absence of NADH

SMILES	Kd [1] [µM]	IC50 [2] [µM]	IC50 [3] [µM]	other results
C[C@@H](Oc1nc(-c2cccc(C(=O)O)c2)cnc1N)c1ccccc1	> 100	> 100	> 100	
CC(=O)Nc1ncc(-c2cccc(C(=O)O)c2)nc1N[C@H](C)c1ccccc1		> 100	> 100	
Cc1c(C(=O)O)cccc1-c1cnc(N)c(N[C@H](C)c2ccccc2)n1	> 100	35		
Cc1nc(N)c(N[C@H](C)c2ccccc2)nc1-c1cccc(C(=O)O)c1	> 100	91	> 100	
C[C@@H](Nc1cncc(-c2cccc(C(=O)O)c2)n1)c1ccccc1	> 100	25		
C[C@@H](Nc1nc(-c2cccc(C(=O)O)c2)cnc1O)c1ccccc1	> 100	> 100	> 100	
C[C@@H](Nc1nc(-c2csc(C(=O)O)c2)cnc1N)c1ccccc1	33	50	> 100	
Nc1ncc(-c2cccc(C(=O)O)c2)nc1NCC1CCCC1	18	19		
C[C@@H](Nc1nc(-c2cccc(C(=O)NS(C)(=O)=O)c2)cnc1N)c1ccccc1	> 100	> 100	> 100	
CNc1ncc(-c2cccc(C(=O)O)c2)nc1N[C@H](C)c1ccccc1	> 100	73	> 100	
C[C@@H](Nc1nc(-c2cccc(C(=O)O)c2)cnc1NS(C)(=O)=O)c1ccccc1		71	> 100	
C[C@H](Nc1nc(-c2cccc(C(=O)O)c2)cnc1N)c1ccccc1	> 100	> 100		
CCOC(=O)c1cccc(-c2cnc(N)c(N[C@H](C)c3ccccc3)n2)c1	> 100	> 100		
C[C@@H](Nc1cc(-c2cccc(C(=O)O)c2)cnc1N)c1ccccc1	29	18		
C[C@@H](Nc1nc(-c2cccc(C(=O)O)c2)ccc1N)c1ccccc1	> 100	> 100		
C[C@@H](Nc1nc(-n2cc(C(=O)O)cn2)cnc1N)c1ccccc1		15	15	
C[C@H](c1ccccc1)N(C)c1nc(-c2cccc(C(=O)O)c2)cnc1N	> 100	> 100		
C[C@@H](Nc1nc(-c2cccc(C(N)=O)c2)cnc1N)c1ccccc1	> 100	> 100		
C[C@@H](Nc1nc(-c2ccccc2C(=O)O)cnc1N)c1ccccc1	> 100	> 100	> 100	
COCCNc1nc(-c2cccc(C(=O)O)c2)cnc1N	> 100	> 100		
C[C@@H](Nc1nc(-c2ccnc(C(=O)O)c2)cnc1N)c1ccccc1	32	24		

The remaining compounds from weak to strong by IC50 [2], led by results:

Kd [1] [µM]	IC50 [2] [µM]	IC50 [3] [µM]	SMILES	other results
29	15		Cc1ccc(-c2cnc(N)c(N[C@H](C)c3ccccc3)n2)cc1C(=O)O	
	14		C[C@@H](Nc1nc(-c2ccc(C(=O)O)cc2)cnc1N)c1ccccc1	
22	12		Nc1ncc(-c2cccc(C(=O)O)c2)nc1NCc1ccccc1	
	10		C[C@@H](Nc1nc(-c2ccc(C(=O)O)c(O)c2)cnc1N)c1ccccc1	
7	4	7	Cc1cc(C(=O)O)cc(-c2cnc(N)c(N[C@H](C)c3ccccc3)n2)c1	
7	4		C[C@@H](Nc1nc(-c2cccc(C(=O)O)c2)cnc1N)c1ccccc1	inhibition (INH) (Cytochrome P450 2D6): Not Active; fraction unbound at 4 h, 5 µM [5]: 0.01; inhibition (INH) (Cytochrome P450 1A2): Not Active; inhibition (INH) (Cytochrome P450 2C9): Not Active; solubility kinetic [7]: 137 µM (≈ 45.8 µg/mL); inhibition (INH) (Cytochrome P450 3A4): Not Active; fraction unbound at 4 h, 5 µM [9]: 0.04; Papp A→B [10]: 9.6 ×10⁻⁶ cm/s; Kd [16]: 857 µM; Papp B→A [13]: 4 ×10⁻⁶ cm/s; inhibition (INH) (Cytochrome P450 2C19): Not Active
7	3		C[C@@H](Nc1nc(-c2cccc(C(=O)O)c2)cnc1N)C1CCCCC1	
5	2	5	C[C@@H](Nc1nc(-c2cccc(C(=O)O)c2)cnc1N)c1ccc(Cl)cc1	
3	2	6	Cc1ccc(C(=O)O)cc1-c1cnc(N)c(N[C@H](C)c2ccccc2)n1	
5	2	7	CC(C)c1ccc(C(=O)O)cc1-c1cnc(N)c(N[C@H](C)c2ccccc2)n1	
3	2	7	COc1ccc(C(=O)O)cc1-c1cnc(N)c(N[C@H](C)c2ccccc2)n1	
5	2	8	C[C@@H](Nc1nc(-c2cc(C(=O)O)ccc2Cl)cnc1N)c1ccccc1	
	0.5		Cc1ccc(C(=O)O)cc1-c1cnc(N)c(N[C@H](C)c2ccc(Cl)cc2)n1	bioavailability [4]: 41%; inhibition (INH) (Cytochrome P450 2D6): Not Active; fraction unbound at 4 h, 5 µM [5]: < 0.01; inhibition (INH) (Cytochrome P450 1A2): Not Active; inhibition (INH) (Cytochrome P450 2C9): Not Active; AUC(0-inf) [6]: 0.55 µM·h; solubility kinetic [7]: 81 µM (≈ 31 µg/mL); Activity [8]: Non-toxic; inhibition (INH) (Cytochrome P450 3A4): Not Active; fraction unbound at 4 h, 5 µM [9]: 0.01; Papp A→B [10]: 12.1 ×10⁻⁶ cm/s; Cmax [11]: 2100 nM; Vd [12]: 1.4 L/kg; Papp B→A [13]: 10.3 ×10⁻⁶ cm/s; inhibition (INH) (Cytochrome P450 2C19): Not Active; clearance [14]: 60 mL/min/kg; half-life [15]: 2.8 h
